Laboratory results from patent publication US7491489B2 (priority 2004, dated 2009).
Converted amounts (≈) assume the structure as drawn.

How the values were obtained:
SARS-CoV GZ50 strain [1] = tested on: SARS-CoV GZ50 strain
SARS-CoV GZ50 strain [2] = assay type: cell-based

Row | SMILES | IC90 (peptide concentration that reduced the viral titer by 90% relative to untreated control) (SARS-CoV GZ50 strain [1]) [µg/mL] | Intracellular viral RNA levels (SARS-CoV GZ50 strain [2]) | Released viral titer relative to untreated control (SARS-CoV GZ50 strain [1]) | Cytotoxic effects on peptide-treated cells (FRhK-4 cells)
1 | CC[C@H](C)[C@H](NC(=O)CNC(=O)[C@H](CC(C)C)NC(=O)[C@@H]1CCCN1C(=O)[C@H](CC(C)C)NC(=O)[C@H](CCCCN)NC(=O)[C@@H](N)Cc1ccccc1)C(=O)N[C@@H](CC(N)=O)C(=O)N[C@H](C(=O)N[C@H](C(=O)N[C@@H](CC(N)=O)C(=O)N[C@@H](Cc1ccccc1)C(=O)N[C@@H](CCCNC(=N)N)C(=O)N[C@@H](C)C(=O)N[C@H](C(=O)N[C@@H](CC(C)C)C(=O)N[C@H](C(=O)N[C@@H](C)C(=O)N[C@@H](Cc1ccccc1)C(=O)N[C@@H](CO)C(=O)O)[C@@H](C)O)[C@@H](C)CC)[C@@H](C)O)[C@@H](C)CC [P1] | >500 |  |  | 
2 | CC[C@H](C)[C@H](NC(=O)[C@@H](NC(=O)CNC(=O)[C@H](CC(N)=O)NC(=O)[C@H](CCC(=O)O)NC(=O)[C@H](CC(=O)O)NC(=O)[C@H](Cc1ccc(O)cc1)NC(=O)[C@H](CCCCN)NC(=O)[C@H](CC(C)C)NC(=O)[C@H](CCSC)NC(=O)[C@H](Cc1ccccc1)NC(=O)[C@@H](NC(=O)[C@@H](NC(=O)[C@@H]1CCCN1)[C@@H](C)O)[C@@H](C)O)[C@@H](C)O)C(=O)N[C@H](C(=O)N[C@@H](CC(=O)O)C(=O)N[C@@H](C)C(=O)N[C@H](C(=O)N[C@@H](CC(=O)O)C(=O)N[C@@H](CS)C(=O)O)C(C)C)[C@@H](C)O [P2] | 112.5 ± 26.3 (≈ 50.3 µM) | reduced | 18 % of the control | 
3 | CC(C)C[C@H](NC(=O)[C@@H](N)C(C)C)C(=O)N[C@@H](Cc1ccc(O)cc1)C(=O)N[C@@H](CC(N)=O)C(=O)N[C@@H](CO)C(=O)N[C@H](C(=O)N[C@@H](Cc1ccccc1)C(=O)N[C@@H](Cc1ccccc1)C(=O)N[C@@H](CO)C(=O)N[C@H](C(=O)N[C@@H](Cc1ccccc1)C(=O)N[C@@H](CCCCN)C(=O)N[C@@H](CS)C(=O)N[C@@H](Cc1ccc(O)cc1)C(=O)NCC(=O)N[C@H](C(=O)N[C@@H](CO)C(=O)N[C@@H](C)C(=O)N[C@H](C(=O)N[C@@H](CCCCN)C(=O)O)[C@@H](C)O)C(C)C)[C@@H](C)O)[C@@H](C)O [P3] | >500 |  |  | 
4 | CC[C@H](C)[C@H](NC(=O)CNC(=O)[C@H](CO)NC(=O)[C@@H](NC(=O)[C@@H](NC(=O)[C@H](Cc1ccc(O)cc1)NC(=O)[C@H](Cc1ccccc1)NC(=O)CNC(=O)[C@H](Cc1ccc(O)cc1)NC(=O)[C@H](CC(=O)O)NC(=O)[C@H](CC(N)=O)NC(=O)[C@H](CC(C)C)NC(=O)[C@@H]1CCCN1C(=O)[C@H](Cc1c[nH]c2ccccc12)NC(=O)[C@H](Cc1ccc(O)cc1)NC(=O)[C@H](CS)NC(=O)[C@H](CC(N)=O)NC(=O)[C@H](CC(C)C)NC(=O)[C@H](C)NC(=O)[C@@H]1CCCN1)[C@@H](C)O)[C@@H](C)O)C(=O)O [P4] | >500 |  |  | 
5 | CC[C@H](C)[C@H](NC(=O)[C@H](CCC(=O)O)NC(=O)[C@H](CO)NC(=O)[C@@H](NC(=O)[C@H](CCCCN)NC(=O)[C@@H]1CCCN1C(=O)[C@H](CC(=O)O)NC(=O)[C@H](CCCNC(=N)N)NC(=O)[C@@H](NC(=O)[C@H](CO)NC(=O)[C@H](CC(=O)O)NC(=O)[C@@H](NC(=O)[C@H](Cc1ccccc1)NC(=O)[C@H](CC(=O)O)NC(=O)[C@H](CO)NC(=O)[C@@H](NC(=O)[C@H](CC(=O)O)NC(=O)[C@@H](N)CCCNC(=N)N)C(C)C)[C@@H](C)O)C(C)C)[C@@H](C)O)C(=O)N[C@@H](CC(C)C)C(=O)N[C@@H](CC(=O)O)C(=O)O [P5] | >500 |  |  | 
6 | CC[C@H](C)[C@H](NC(=O)[C@H](C)NC(=O)[C@@H](NC(=O)[C@H](CO)NC(=O)[C@@H](NC(=O)[C@H](CC(=O)O)NC(=O)[C@@H](NC(=O)[C@H](CS)NC(=O)[C@H](CC(N)=O)NC(=O)[C@@H](NC(=O)[C@H](CC(=O)O)NC(=O)[C@H](CCC(N)=O)NC(=O)[C@@H](N)Cc1ccc(O)cc1)C(C)C)[C@@H](C)O)C(C)C)[C@@H](C)O)C(=O)N[C@@H](Cc1c[nH]cn1)C(=O)N[C@@H](C)C(=O)N[C@@H](CC(=O)O)C(=O)N[C@@H](CCC(N)=O)C(=O)N[C@@H](CC(C)C)C(=O)N[C@H](C(=O)N1CCC[C@H]1C(=O)O)[C@@H](C)O [P6] | 113.0 (≈ 51.6 µM) | reduced | 18 % of the control | 
7 | CC[C@H](C)[C@H](NC(=O)[C@H](CO)NC(=O)[C@H](Cc1ccccc1)NC(=O)[C@H](CC(N)=O)NC(=O)[C@@H](NC(=O)[C@@H]1CCCN1C(=O)[C@@H](NC(=O)[C@H](C)NC(=O)[C@@H](NC(=O)[C@@H](NC(=O)[C@H](CC(N)=O)NC(=O)[C@H](CC(N)=O)NC(=O)[C@@H](N)CO)[C@@H](C)O)[C@@H](C)CC)[C@@H](C)CC)[C@@H](C)O)C(=O)N[C@@H](CO)C(=O)N[C@H](C(=O)N[C@H](C(=O)N[C@H](C(=O)N[C@@H](CCC(=O)O)C(=O)N[C@H](C(=O)N[C@@H](CCSC)C(=O)O)C(C)C)[C@@H](C)O)[C@@H](C)O)[C@@H](C)CC [P7] | >500 |  |  | 
8 | CC[C@H](C)[C@H](NC(=O)CNC(=O)[C@H](CO)NC(=O)[C@H](CC(C)C)NC(=O)[C@H](C)NC(=O)[C@H](CCCNC(=N)N)NC(=O)[C@H](CC(N)=O)NC(=O)[C@H](CC(C)C)NC(=O)[C@H](CCC(N)=O)NC(=O)[C@@H](NC(=O)[C@H](CS)NC(=O)[C@H](Cc1ccccc1)NC(=O)[C@H](CO)NC(=O)CNC(=O)[C@H](Cc1ccc(O)cc1)NC(=O)[C@@H](N)CCC(N)=O)[C@@H](C)O)C(=O)N[C@@H](C)C(=O)N[C@@H](C)C(=O)N[C@@H](CCC(=O)O)C(=O)N[C@@H](CCC(N)=O)C(=O)O [P8] | 24.9 (≈ 11.5 µM) |  |  | None of the 10 peptide-treated cells exhibited cytotoxic effects
9 | CC[C@H](C)[C@H](NC(=O)CN)C(=O)NCC(=O)N[C@H](C(=O)N[C@H](C(=O)N[C@@H](CCC(N)=O)C(=O)N[C@@H](CC(N)=O)C(=O)N[C@H](C(=O)N[C@@H](CC(C)C)C(=O)N[C@@H](Cc1ccc(O)cc1)C(=O)N[C@@H](CCC(=O)O)C(=O)N[C@@H](CC(N)=O)C(=O)N[C@@H](CCC(N)=O)C(=O)N[C@@H](CCCCN)C(=O)N[C@@H](CCC(N)=O)C(=O)N[C@H](C(=O)N[C@@H](C)C(=O)N[C@@H](CC(N)=O)C(=O)N[C@@H](CCC(N)=O)C(=O)N[C@@H](Cc1ccccc1)C(=O)O)[C@@H](C)CC)C(C)C)[C@@H](C)O)C(C)C [P9] | >500 |  |  | 
